Experimental data reported in patent publication US20130317027A1, “COMPOUNDS AND THERAPEUTIC USES THEREOF” (Myrexis, Inc, priority 2010, published 2013).

Assays:
[1] = tested on: cell lines (cancer, normal and primary cells); assay: NA Rescue assay (cytotoxicity with nicotinic acid added); format: cell-based; conditions: fixed dose
Procedure: Cell lines were treated with a fixed dose of Exemplary Compound A and screened for NA rescue and Naprt1 expression by immunoblotting and quantitative RT-PCR (Table 7). […] The 176 cell lines included 5 normal (non-cancerous) cells and 3 primary cells (italicized in the table), all of which rescued. Naprt1 was quantified by western blotting and q-RT-PCR in 164 and 123 of the 176 cell lines, respectively. […] A statistically significant (p value <0.0001) correlation existed between NA rescue phenotype and Naprt1 protein or mRNA expression levels.
Additional cancer cell lines were treated with Exemplary Compounds A, C, D, E, F, G and H (identified below) (Table 8). The NA rescue phenotype of a particular cancer cell line was maintained for all Nampt inhibitors tested.

MDA-MB-436 cells = assay: Synergy between Nampt inhibitors and the PARP inhibitor olaparib in BRCA1-deficient cells; format: cell-based; conditions: loss of BRCA1 function
Procedure: Experiments were conducted in HCT116 cells.
This was not fully unexpected, as PARP inhibitors are relatively benign to cells (like HCT116 cells) that have a functional homologous recombination (HR) system to repair double stranded DNA damage (Ashworth A. Journal of Clinical Oncology 26(22):3785-90 (2008)). In fact, the model (FIG. 1A) predicts that inhibiting an enzyme, such as PARP, that consumes NAD^+ would protect HR-proficient cells from Nampt inhibition. However, in cells that have lost the function of BRCA tumor suppressors, HR function is compromised, and these cells are killed by PARP inhibitors (Ashworth A. (2008) Journal of Clinical Oncology 26(22):3785-90). Thus, it was hypothesized that PARP inhibitors, while being antagonistic with Nampt inhibitors in most cells, would be synergistic in cells with BRCA mutations that render the cells HR-deficient (FIG. 1B). Indeed, in MDA-MB-436 cells, which have a loss of BRCA1 function, Nampt inhibitors (a known Nampt inhibitor, Exemplary Compound A and Exemplary Compound I, both Exemplary Compounds identified hereinafter) and the PARP inhibitor olaparib synergized in causing cell death. […] Of further significance to these findings, it is becoming clear that other routes of HR deficiency in oncogenesis (other than BRCA sequence mutation) could also lead to sensitivity to PARP inhibition plus Nampt inhibitor combination therapy. […]

[2] = tested on: Cancer cell lines (SCLC, glioma, colon cancer and others)
Procedure: Experiments were conducted in HCT116 cells. […] For compound combination analyses, the MacSynergy™ II protocol and program were utilized, following the recommendations of the developers (Prichard and Shipman, 1990). Prior to combinations of compounds, dose curves of cells treated with a single compound were generated to define relevant compound doses to use in the combination analysis. Typically, relevant doses were those found in the inflection portion of a sigmoidal dose-response curve. Utilizing these optimized conditions, cells were dosed with Nampt inhibitor plus the test compound at a variety of concentrations of each, and viability was assessed using CellTiter-Glo. Data was processed using the MacSynergy™ II algorithm, which subtracted from actual data a prediction of compound additivity. Thresholds for meaningful synergy were defined based upon the recommendations of the developers (Prichard and Shipman, 1990).
Cancer cell lines used in these studies represented cancer types found to be sensitive to Nampt inhibition [e.g. non-Hodgkins lymphoma, multiple myeloma, glioma, non-small cell lung carcinoma (NSCLC), small cell lung carcinoma (SCLC), ovarian cancer and colorectal cancer].

## O=C(NCc1cccnc1)Nc1ccc(COc2ccccc2-c2ccccc2)cc1 [Exemplary Compound A]
[1]; A549 cells, lung (NSCLC)
  NA rescue: yes
[1]; ACHN cells, kidney
  NA rescue: yes
[1]; AsPC-1 cells, pancreas
  NA rescue: yes
[1]; BEAS-2B cells, lung (normal)
  NA rescue: yes
[1]; BT-474 cells, breast
  NA rescue: yes
[1]; BxPC-3 cells, pancreas
  NA rescue: yes
[1]; CCRF-CEM cells, lymphocytic leukemia
  NA rescue: yes
[1]; CFPAC-1 cells, pancreas
  NA rescue: yes
[1]; CHLA-90 cells, brain, neuroblastoma
  NA rescue: no
[1]; Calu-1 cells, lung (NSCLC)
  NA rescue: yes
[1]; Calu-6 cells, lung (NSCLC)
  NA rescue: yes
[1]; Capan-1 cells, pancreas
  NA rescue: yes
[1]; DBTRG-05MG cells, brain, glioblastoma
  NA rescue: yes
[1]; DEL cells, lymphoma
  NA rescue: partial
[1]; DU145 cells, prostate
  NA rescue: yes
[1]; DU4475 cells, breast
  NA rescue: yes
[1]; Daoy cells, brain, medulloblastoma
  NA rescue: yes
[1]; Daudi cells, lymphoma
  NA rescue: no
[1]; EKVX cells, lung (NSCLC)
  NA rescue: yes
[1]; H4 cells, brain, neuroglioma
  NA rescue: partial
[1]; H9 cells, lymphoma
  NA rescue: no
[1]; HCC78 cells, lung (NSCLC)
  NA rescue: no
[1]; HOP18 cells, lung (NSCLC)
  NA rescue: yes
[1]; HOP62 cells, lung (NSCLC)
  NA rescue: yes
[1]; HOP92 cells, lung (NSCLC)
  NA rescue: yes
[1]; HOS cells, osteosarcoma
  NA rescue: no
[1]; HepG2 cells, hepatocellular carcinoma
  NA rescue: no
[1]; Hs683 cells, brain, glioma
  NA rescue: yes
[1]; Hs766T cells, pancreas
  NA rescue: yes
[1]; Huh7 cells, hepatocellular carcinoma
  NA rescue: yes
[1]; IMR-32 cells, brain, neuroblastoma
  NA rescue: no
[1]; IMR-90 cells, lung (normal)
  NA rescue: yes
[1]; JJN3 cells, myeloma (plasma cell leukemia)
  NA rescue: yes
[1]; Jurkat cells, lymphocytic leukemia
  NA rescue: yes
[1]; KARPAS-299 cells, lymphocytic leukemia
  NA rescue: no
[1]; KELLY cells, brain, oligodendroglioma
  NA rescue: no
[1]; KNS-42 cells, brain, glioma
  NA rescue: no
[1]; L-82 cells, lymphoma
  NA rescue: yes
[1]; LA-N-6 cells, brain, neuroblastoma
  NA rescue: yes
[1]; LNCAP cells, prostate
  NA rescue: yes
[1]; M059J cells, brain, malignant glioblastoma, glioma
  NA rescue: no
[1]; MALME-3 cells, skin (normal)
  NA rescue: yes
[1]; MG-63 cells, osteosarcoma
  NA rescue: no
[1]; MM.1S cells, myeloma
  NA rescue: yes
[1]; MOLP-8 cells, myeloma
  NA rescue: partial
[1]; MOLT4 cells, lymphocytic leukemia
  NA rescue: yes
[1]; MONO-MAC-6 cells, lymphocytic leukemia
  NA rescue: partial
[1]; MRC-5 cells, lung (normal)
  NA rescue: yes
[1]; NAMALWA cells, lymphoma
  NA rescue: no
[1]; NCI-H23 cells, lung (NSCLC)
  NA rescue: yes
[1]; NCI-H69 cells, lung (small cell)
  NA rescue: no
[1]; NCI-H146 cells, lung (small cell)
  NA rescue: yes
[1]; NCI-H209 cells, lung (small cell)
  NA rescue: yes
[1]; NCI-H226 cells, lung (NSCLC)
  NA rescue: yes
[1]; NCI-H322 cells, lung (NSCLC)
  NA rescue: no
[1]; NCI-H345 cells, lung (small cell)
  NA rescue: yes
[1]; NCI-H441 cells, lung (NSCLC)
  NA rescue: yes
[1]; NCI-H596 cells, lung (NSCLC)
  NA rescue: partial
[1]; NCI-H1299 cells, lung (NSCLC)
  NA rescue: yes
[1]; NCI-H1437 cells, lung (NSCLC)
  NA rescue: yes
[1]; NCI-H1568 cells, lung (NSCLC)
  NA rescue: yes
[1]; NCI-H1792 cells, lung (NSCLC)
  NA rescue: yes
[1]; NCI-H1944 cells, lung (NSCLC)
  NA rescue: yes
[1]; NCI-H1993 cells, lung (NSCLC)
  NA rescue: yes
[1]; OVCAR-3 cells, ovary
  NA rescue: yes
[1]; PBMC, primary blood
  NA rescue: yes
[1]; PFSK-1 cells, brain, malignant neuroectodermal tumor
  NA rescue: partial
[1]; Panc-1 cells, pancreas
  NA rescue: yes
[1]; RPMI-8226 cells, myeloma
  NA rescue: partial
[1]; Ramos cells, lymphoma
  NA rescue: yes
[1]; SAEC, primary lung
  NA rescue: yes
[1]; SF-268 cells, brain, astrocytoma, anaplastic
  NA rescue: no
[1]; SF-539 cells, brain, gliosarcoma
  NA rescue: yes
[1]; SH-SY5Y cells, brain, neuroblastoma, bone marrow met.
  NA rescue: no
[1]; SHP-77 cells, lung (small cell)
  NA rescue: yes
[1]; SJSA1 cells, osteosarcoma
  NA rescue: yes
[1]; SK-ES-1 cells, osteosarcoma
  NA rescue: yes
[1]; SK-N-FI cells, brain, neuroblastoma, bone marrow met.
  NA rescue: no
[1]; SK-N-MC cells, brain, neuroepithelioma, supra-orbital met.
  NA rescue: no
[1]; SK-N-SH cells, brain, neuroblastoma, metastatic
  NA rescue: no
[1]; SMS-KCNR cells, brain, neuroblastoma, ALK (R1275Q).
  NA rescue: yes
[1]; SNB-19 cells, brain, glioblastoma
  NA rescue: no
[1]; SNU182 cells, hepatocellular carcinoma
  NA rescue: yes
[1]; SNU449 cells, hepatocellular carcinoma
  NA rescue: yes
[1]; SR-786 cells, lymphoma
  NA rescue: no
[1]; SU-DHL-1 cells, lymphoma
  NA rescue: no
[1]; SU-DHL-10 cells, lymphoma
  NA rescue: yes
[1]; SW1088 cells, brain, astrocytoma
  NA rescue: yes
[1]; SW1783 cells, brain, astrocytoma
  NA rescue: yes
[1]; Saos-2 cells, osteosarcoma
  NA rescue: yes
[1]; T24 cells, bladder
  NA rescue: yes
[1]; THP-1 cells, lymphocytic leukemia
  NA rescue: yes
[1]; U251 cells, brain, glioblastoma
  NA rescue: no
[1]; U-2 OS cells, osteosarcoma
  NA rescue: no
[1]; U-937 cells, lymphoma
  NA rescue: yes
[1]; UWB1.289 cells, ovary
  NA rescue: yes
[1]; Wi-38 cells, lung (normal)
  NA rescue: yes
[1]; of 176 cell lines tested
  cell lines that completely rescued with NA: 113
  cell lines that did not rescue with NA: 47
  cell lines that partially rescued with NA: 16
[1]; keratinocytes, primary skin
  NA rescue: yes
[1]; no. 10 cells, brain, glioma, anaplastic
  NA rescue: no
[1]; no. 11 cells, brain, glioma, anaplastic
  NA rescue: partial
MDA-MB-436 cells
  drug interaction with the PARP inhibitor olaparib in causing cell death: synergized
[2]
  cytotoxicity in combination with 4HC: Synergistic cytotoxicity
  cytotoxicity in combination with 5-FU: Synergistic cytotoxicity
  cytotoxicity in combination with temozolomide: Synergistic cytotoxicity
